Here are results for three molecules from patent US4698419A, “Hexapeptide” (Vsesojuzny Kardiologichesky Nauchny Tsentr Akademii …, priority 1984, dated 1987).

Series [1] concerns acute hepatitis induced by D-galactosamine hydrochloride. The series is described as follows: Acute hepatitis induced by D-galactosamine hydrochloride in mice, plasma enzymes. Format: in vivo, male mice of the line Balb C. Conditions: for Concentration of alanine transaminase / Concentration of glutamatedehydrogenase: mouse blood plasma, D-galactosamine hydrochloride 700 mg/kg i.p., hexapeptide 100 μg/kg or prednisolone 5 mg/kg hypodermally, repeated after 6 hours. Here is the method:
The study of a hepatoprotective effect of the hexapeptide according to the present invention was carried out in comparison with prednisolone on male mice of the line Balb C.
The development of acute hepatitis was induced in mice subjected to a 12-hours' starving by means of D-galactosamine hydrochloride which was administered intraperitoneally diluted in 0.1 ml of a physiological solution in the dose of 700 mg/kg. The control group of animals was administered intraperitoneally with 0.1 ml of a physiological solution. The animals given D-galactosoamine hydrochloride were injected, immediately after its administration, with the hexapeptide according to the present invention (100 μg/kg), prednisolone (5 mg/kg) or a physiological solution (0.1 ml) hypodermally. Repeated injections of the test preparations were made after 6 hours. Each of the groups consisted of 12 animals. The mice were slaughtered by decapitation, blood was collected and in its plasma concentrations of alanine transaminase and glutametedehydrogenase were determined.
The statistical processing of the results obtained was effected using t-criterion. The certain value was regarded as the dirrerence at the level of 95% (at P<0.05).

Series [2] relates to acute liver injury induced by carbon tetrachloride. Briefly: Acute liver injury induced by carbon tetrachloride in rats, blood enzymes and lethality. It counts as in vivo, male rats of the V-star line. Conditions: for Lethality: comparison of the hexapeptide with somatostatin; for Number of rats survived after 48 hours: groups of 13; for Concentration of alanine transaminase / Concentration of glutamatedehydrogenase: rat blood, CCl4, repeated after 6, 24 and 30 hours. Here is the method:
The hexapeptide according to the present invention was also studied on an experimental model of an acute liver injury in male rats of the V-star line induced by means of carbon tetrachloride. After a 12-hours' starvation the rats were given CCl4 in the concentration of […] diluted in olive oil intraperitoneally. After administration of CCl4 the rats were injected with the hexapeptide according to the present invention in different doses (10, 30, 100 and 300 μg/kg). Repeated injections of the hexapeptide according to the invention were effected after 6, 24, and 30 hours. The control group of animals was given, instead of the hexapeptide of this invention, a physiological solution (0.2 ml). All the test groups of animals consisted of 13 rats. Concentrations of alanine transaminase and glutamatedehydrogenase were determined in the rats blood.
A statistical processing in the case of liver injury caused by carbon tetrachloride in respect of the enzymes was effected using t-criterion, while in respect of lethality--by means of .chi.^2 criterion.

A short description of the next series: Acute toxicity LD50. The settings on record: in vivo.
Series [3] is described as follows: Cell composition of the blood and basic hemodynamic characteristics in all experiments. Format: in vivo. Conditions: all of the experiments with the hexapeptide.
A short description of the next series: Solubility of the powder. Format: physicochemical. As to the method: The hexapeptide according to the present invention comprises a white powder well soluble in distilled water, physiological solution, ethanol, insoluble in ether, ethylacetate, benzene. Melting point is 154°-156° C., (α)D^25 =+8.4 (with 0.5 H2 O).

No end group written: not given here.

For `C[C@]12C=CC(=O)C=C1CC[C@@H]1[C@@H]2[C@@H](O)C[C@@]2(C)[C@H]1CC[C@]2(O)C(=O)CO` [prednisolone, reference compound], the “Effect on the values of the studied parameters (alanine transaminase, glutamatedehydrogenase)” value in series [1] (D-galactosamine mice, prednisolone 5 mg/kg) is “a trend was observed towards reducing”. Moreover, in series [1] (conventionally employed parenteral dose), the “Effect on the concentration of the enzymes” value is on record as “does not provide any pronounced effect”. Also, in series [1], the “Concentration of alanine transaminase” value was 151.2 ± 14.3 JU/e and the Concentration of glutamatedehydrogenase is 104.5 ± 10.1 JU/e.
As to `C[C@H](N)C(=O)NCC(=O)N[C@H]1CSSC[C@@H](C(=O)O)NC(=O)[C@H](CO)NC(=O)[C@H]([C@@H](C)O)NC(=O)[C@H](Cc2ccccc2)NC(=O)[C@H]([C@@H](C)O)NC(=O)[C@H](CCCCN)NC(=O)[C@H](Cc2c[nH]c3ccccc23)NC(=O)[C@H](Cc2ccccc2)NC(=O)[C@H](Cc2ccccc2)NC(=O)[C@H](CC(N)=O)NC(=O)[C@H](CCCCN)NC1=O` [somatostatin, reference compound], the Lethality in series [2] amounted to 20%. This molecule gave a Maximum effective dose in series [2] (comparison with the hexapeptide) of 1.5 mg/kg.
Regarding “FAGFGR [hexapeptide of this invention, phenylalanyl-alanyl-glycyl-phenylalanyl-glycylarginine]”, the “Effect on the increase of concentrations of alanine transaminase” value in series [1] (D-galactosamine mice, 100 μg/kg) is “substantially fully blocked the increase”. The “Reduction of the concentration of glutamatedehydrogenase” value in series [1] (D-galactosamine mice, 100 μg/kg, versus D-galactosamine + physiological solution) was 2 times. The “Concentration of alanine transaminase” value in series [1] is given as 115.4 ± 5.2 JU/e; in series [2] (10 μg/kg), 4141.5 ± 1094.8 JU/e; in series [2] (30 μg/kg), 3037.8 ± 580.8 JU/e; in series [2] (100 μg/kg), 2339.8 ± 333.4 JU/e; in series [2] (300 μg/kg), 2110.1 ± 374.5 JU/e. Besides, the Concentration of glutamatedehydrogenase in series [1] was found to be 62.8 ± 4.9 JU/e; in series [2] (10 μg/kg), 1962.0 ± 494.7 JU/e; in series [2] (30 μg/kg) it was 1487.3 ± 301.5 JU/e; in series [2] (100 μg/kg), 874.3 ± 118.3 JU/e; in series [2] (300 μg/kg) it was 603.3 ± 118.0 JU/e. Moreover, in series [2] (CCl4 rats, 10-300 μg/kg), the “Effect on both parameters (alanine transaminase, glutamatedehydrogenase)” value is reported as “lowers both parameters depending on the dose”. Moreover, the “Number of rats survived after 48 hours” value in series [2] (CCl4 rats, dose 10 μg/kg) was 6; in series [2] (CCl4 rats, dose 30 μg/kg), 9; in series [2] (CCl4 rats, dose 100 μg/kg) it was 13; in series [2] (CCl4 rats, dose 300 μg/kg) it was 13. For the same molecule, the “Lethal cases (%)” value in series [2] (CCl4 rats, dose 10 μg/kg) stood at 54%; in series [2] (CCl4 rats, dose 30 μg/kg) it was 30%; in series [2] (CCl4 rats, dose 100 μg/kg) it was 0%; in series [2] (CCl4 rats, dose 300 μg/kg), 0%. In series [2] (CCl4 rats, doses of 100 and 300 μg/kg), the Lethal cases entry is “no lethal cases are observed”. Further, the Lethality in series [2] was found to be 0%. Also, in series [2] (comparison with somatostatin), the Maximum effective dose amounted to 0.1 mg/kg. Besides, the “Maximum effective dose lower than that of somatostatin” value in series [2] (hexapeptide versus somatostatin) was 15 times. Besides, in the series “Acute toxicity LD50”, the “Acute toxicity LD50” value was determined as 120 mg/kg. Further, the “Changes on the part of basic hemodynamic characteristics” value in series [3] is listed as “no changes were observed”. Moreover, in series [3], the “Changes on the part of the cell composition of the blood” value is “no changes were observed”. Further, the Solubility result is listed as “insoluble” in “Solubility of the powder” (benzene); “well soluble” in the series “Solubility of the powder” (distilled water); “well soluble” in “Solubility of the powder” (ethanol); “insoluble” in “Solubility of the powder” (ether); “insoluble” in “Solubility of the powder” (ethylacetate); “well soluble” in “Solubility of the powder” (physiological solution).
